Experimental data taken from patent US20250368620A1, “ARNT Degrading Compounds and Uses Thereof” (Celgene Corporation, priority 2024, published 2025).

Each molecule was assayed against T1, ARNT (Homo sapiens, UniProt P27540) (assay: ARNT degradation in a HiBiT system (HEK293 ARNT-HiBiT Knock-In cell line)). Details: half-maximal degradation concentration; HEK293 ARNT-HiBiT KI cells, 4h of treatment, luminescence.
T1 construct: an sgRNA targeting the C-terminus of the ARNT gene near the stop codon; endogenous in cells; host or cells: HEK293 ARNT-HiBiT knock-in, homozygous clone
T1 sequence (P27540 whole entry): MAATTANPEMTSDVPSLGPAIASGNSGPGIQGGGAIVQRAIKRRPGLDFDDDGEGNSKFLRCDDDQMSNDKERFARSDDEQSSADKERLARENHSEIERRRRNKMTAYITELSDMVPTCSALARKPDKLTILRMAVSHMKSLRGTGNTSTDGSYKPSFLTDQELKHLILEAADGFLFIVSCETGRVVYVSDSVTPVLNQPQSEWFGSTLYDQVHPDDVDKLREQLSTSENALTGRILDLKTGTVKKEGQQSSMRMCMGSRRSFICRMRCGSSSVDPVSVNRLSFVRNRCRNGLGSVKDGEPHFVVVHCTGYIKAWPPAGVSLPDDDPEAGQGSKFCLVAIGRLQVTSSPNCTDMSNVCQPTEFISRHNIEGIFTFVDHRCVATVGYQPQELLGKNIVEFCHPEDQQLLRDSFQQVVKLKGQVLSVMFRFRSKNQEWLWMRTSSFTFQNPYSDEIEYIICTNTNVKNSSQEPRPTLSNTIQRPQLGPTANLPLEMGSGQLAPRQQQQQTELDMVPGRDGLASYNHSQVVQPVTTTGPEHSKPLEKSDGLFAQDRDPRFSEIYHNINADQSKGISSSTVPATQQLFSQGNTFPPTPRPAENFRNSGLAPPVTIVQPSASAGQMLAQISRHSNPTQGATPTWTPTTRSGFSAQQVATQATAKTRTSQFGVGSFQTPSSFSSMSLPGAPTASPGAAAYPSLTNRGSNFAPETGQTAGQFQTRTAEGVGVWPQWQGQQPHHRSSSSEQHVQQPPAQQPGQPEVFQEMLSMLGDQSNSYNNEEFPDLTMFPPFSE
Type: cell-based
Description: Compounds of Formula (I) were tested for ARNT degradation in a HiBiT system. A HEK293 ARNT-HiBiT Knock-In cell line was generated using CRISPR/Cas9 technology. Briefly, HEK293 cells were electroporated with the Neon system with an sgRNA targeting the C-terminus of the ARNT gene near the stop codon ([…] (SEQ ID NO: 1); chr 1: 150,812,014-150,812,034) and the HiBiT donor DNA template (80 nucleotides homology arms upstream and downstream of the insert site, with a GSGS (SEQ ID NO: 2) linker). A homozygous clone was selected after Sanger sequencing, and genetic edition was further validated using Nano-Glo HiBiT blotting system. HEK293 ARNT-HiBiT KI cells were cultured in DMEM+10% FBS at 37° C. and 5% CO2. For the assay, cells were seeded at 10,000 cells/well in white 384 plates (Corning #3570) in 22.5 μl of culture medium without phenol red. Test compounds were spotted in 384-well plates by an acoustic dispenser (10 concentrations, semi-log dilution, in 100% DMSO). Before treatment, compounds were diluted 1:100 or 1:1,000 in culture medium without phenol red, and cells were treated with 2.5 μl of diluted compounds 18h after seeding (final top concentration: 3 or 0.3 μM). After 4h of treatment, plates were equilibrated at room temperature for 30 min, and 25 μl of NANO-GLO® HiBiT Lytic reagent were added per well. Luminescence was measured on a plate reader 15 min after incubation with the detection reagent. Data were analyzed using the Genedata Screener Software version 19, and normalization was performed using the DMSO treated wells as Neutral Control and medium only (without cells) wells as Scale Reference. For curve fitting, the smart fit condensing method with a 4-parameters Hill model was used and the half-maximal degradation concentration (DC50) was calculated.

Row | DC50 [nM] | SMILES
1 | 0.46 | C[C@@H]1c2cc(C(=O)N3Cc4c(ccc(Cl)c4F)[C@@H]3CN3CCCCC3)ccc2C(=O)N1[C@H]1CCC(=O)NC1=O [Compound 6, (S)-3-((R)-5-((R)-5-chloro-4-fluoro-1-(piperidin-1-ylmethyl)isoindoline-2-carbonyl)-3-methyl-1-oxoisoindolin-2-yl)piperidine-2,6-dione]
2 | 7.6 | C[C@H]1c2ccc(C(F)(F)F)cc2CN1C(=O)c1ccc2c(c1)CN(C1CCC(=O)NC1=O)C2=O (stereo partly drawn) [Compound 38, 3-(5-((S)-1-methyl-5-(trifluoromethyl)isoindoline-2-carbonyl)-1-oxoisoindolin-2-yl)piperidine-2,6-dione]
3 | 1.3 | COc1c(Br)ccc2c1CN(C(=O)c1ccc3c(c1)[C@@H](C)N([C@H]1CCC(=O)NC1=O)C3=O)[C@H]2C [Compound 22, (S)-3-((R)-5-((S)-5-bromo-4-methoxy-1-methylisoindoline-2-carbonyl)-3-methyl-1-oxoisoindolin-2-yl)piperidine-2,6-dione]
4 | 0.39 | C[C@@H]1c2cc(C(=O)N3Cc4c(Br)cccc4[C@@H]3CN(C)C)ccc2C(=O)N1[C@H]1CCC(=O)NC1=O [Compound 3, (S)-3-((R)-5-((R)-4-bromo-1-((dimethylamino)methyl)isoin-doline-2-carbonyl)-3-methyl-1-oxoisoindolin-2-yl)piperidine-2,6-dione]
5 | 1.3 | C[C@@H]1c2cc(C(=O)N3Cc4c(ccc(Br)c4Cl)[C@@H]3C)ccc2C(=O)N1[C@H]1CCC(=O)NC1=O [Compound 24, (S)-3-((R)-5-((S)-5-bromo-4-chloro-1-methylisoindoline-2-carbonyl)-3-methyl-1-oxoisoindolin-2-yl)piperidine-2,6-dione]
6 | 1 | C[C@@H]1c2cc(C(=O)N3Cc4c(ccc(Cl)c4F)[C@@H]3CN3CC(F)(F)C3)ccc2C(=O)N1[C@H]1CCC(=O)NC1=O [Compound 15, (S)-3-((R)-5-((R)-5-chloro-1-((3,3-difluoroazetidin-1-yl)methyl)-4-fluoroisoindoline-2-carbonyl)-3-methyl-1-oxoisoindolin-2-yl)piperidine-2,6-dione]
7 | 0.66 | C[C@@H]1c2cc(C(=O)N3Cc4cc(Br)ccc4[C@@H]3C)ccc2C(=O)N1[C@H]1CCC(=O)NC1=O [Compound 9, (S)-3-((R)-5-((S)-5-bromo-1-methylisoindoline-2-carbonyl)-3-methyl-1-oxoisoindolin-2-yl)piperidine-2,6-dione]
8 | 0.78 | C[C@@H]1c2cc(C(=O)N3Cc4cc(F)ccc4[C@@H]3C)ccc2C(=O)N1[C@H]1CCC(=O)NC1=O [Compound 13, (S)-3-((R)-5-((S)-5-fluoro-1-methylisoindoline-2-carbonyl)-3-methyl-1-oxoisoindolin-2-yl)piperidine-2,6-dione]
9 | 0.72 | COc1cccc2c1CN(C(=O)c1ccc3c(c1)[C@@H](C)N([C@H]1CCC(=O)NC1=O)C3=O)[C@H]2CN(C)C [Compound 11, (S)-3-((R)-5-((R)-1-((dimethylamino)methyl)-4-methoxyisoindoline-2-carbonyl)-3-methyl-1-oxoisoindolin-2-yl)piperidine-2,6-dione]
10 | 3.4 | C[C@H]1c2ccc(Br)c(F)c2CN1C(=O)c1ccc2c(c1)CN(C1CCC(=O)NC1=O)C2=O (stereo partly drawn) [Compound 36, 3-(5-((S)-5-bromo-4-fluoro-1-methylisoindoline-2-carbonyl)-1-oxoisoindolin-2-yl)piperidine-2,6-dione]
11 | 6.5 | C[C@@H]1c2cc(C(=O)N3Cc4cc(C(F)(F)F)ccc4[C@@H]3C)ccc2C(=O)N1[C@@H]1CCC(=O)NC1=O [Compound 37, (R)-3-((R)-3-methyl-5-((S)-1-methyl-5-(trifluoromethyl)isoindoline-2-carbonyl)-1-oxoisoindolin-2-yl)piperidine-2,6-dione]
12 | 0.61 | C[C@@H]1c2cc(C(=O)N3Cc4cc(C(F)(F)F)ccc4[C@@H]3CN(C)C)ccc2C(=O)N1[C@H]1CCC(=O)NC1=O [Compound 8, (S)-3-((R)-5-((R)-1-((dimethylamino)methyl)-5-(trifluoromethyl)isoindoline-2-carbonyl)-3-methyl-1-oxoisoindolin-2-yl)piperidine-2,6-dione]
13 | 1.7 | C[C@@H]1c2cc(C(=O)N3Cc4ccc(F)cc4[C@@H]3C)ccc2C(=O)N1[C@H]1CCC(=O)NC1=O [Compound 27, (S)-3-((R)-5-((S)-6-fluoro-1-methylisoindoline-2-carbonyl)-3-methyl-1-oxoisoindolin-2-yl)piperidine-2,6-dione]
14 | 1.9 | C[C@@H]1c2cc(C(=O)N3Cc4c(ccc(Cl)c4F)[C@@H]3C)ccc2C(=O)N1[C@H]1CCC(=O)NC1=O [Compound 30, (S)-3-((R)-5-((S)-5-chloro-4-fluoro-1-methylisoindoline-2-carbonyl)-3-methyl-1-oxoisoindolin-2-yl)piperidine-2,6-dione]
